# Measurements as given in US7422867B2, “Methods of identifying compounds that modulate IL-4 receptor mediated IgE synthesis utilizing a CLLD8 protein” (Rigel Pharmaceuticals, Inc., priority 2002, dated 2008).
# Legend:
# [1] = test system: IL-4 induced germline ε transcription (ε promoter reporter in A5T4 cells); test: Re-infection (DNA transfer) assay in naïve A5T4 reporter cells; functional profile of mutants; assay type: cell-based, human; conditions: for Reporter Ratio: screening in the A5T4 reporter line, wild type and mutants
# Experimental: The ability of peptide CL02A3 wt to inhibit germline ε transcription was confirmed in naïve cells. Briefly, Phoenix cells were transfected with a retroviral vector encoding a BFP-CL02A3 wt peptide fusion as described in WO 99/58663 and WO 97/27213. Naïve A5T4 cells were infected with the resultant virions and grown for 3 days. The infected cells were stimulated with IL-4 (60 U/mL) and, after 3 days, the cells were assessed by FACS for BFP and GFP.
# A collection of CL02A3 mutants was generated by replacing single or double amino acid residues in the sequence of CL02A3 wt with a different amino acid, typically an alanine or glycine, as described in copending application Ser. No. 10/095,659, entitled Methods of Identifying Protein Targets, filed Mar. 8, 2002. The functional profiles for the mutants derived from CL02A3 wt was obtained by constructing and screening for activity in the A5T4 reporter cell line in the manner described above. The activity of each mutant at the germline ε promoter is reflected in the reporter ratio, as described above. The reporter ratios were the functional values that were used to develop the functional profiles.
# TABLE 2 depicts the amino acid sequences (the dual alanine mutations are underlined) of the mutants tested and the measured reporter ratios when screening in the A5T4 reporter line.
# Comparison of the interaction and functional profiles was performed by categorizing the mutants of CL02A3 based on the functional and interaction assays. Based on the reporter ratio, described in panel C of FIG. 4, each mutant was categorized into one of four functional categories: (1) reduction of function (ROF); (2) loss of function (LOF); (3) increase of function (IOF) or (4) functionally neutral (N), as compared to the activity of the wild type peptide, here CL02A3 wt. As mentioned previously, cells expressing a peptide that inhibits germline ε transcription have reporter ratios of ≧1.1. Cells expressing a loss of function mutant have a reporter ratio of […]. […] Functionally neutral mutants have reporter ratios that fall within ±50% of that of the CL02A3 wt peptide. The % increase or decrease in reporter ratio is calculated after subtracting 1.0 from the individual ratios. Using these criteria, peptides CL02A3LG (SEQ ID NO:2), CL02A3TP (SEQ ID NO:4), and CL02A3EQ (SEQ ID NO:5) were designated as IOF mutants, peptide CL02A3LGW (SEQ ID NO:3), CL02A3HH (SEQ ID NO:8), CL02A3PW (SEQ ID NO:9) were designated as ROF mutants, peptides CL02A3HG (SEQ ID NO:6), and CL02A3GC (SEQ ID NO:7) were designated as neutral, and peptide CL02A3AM (SEQ ID NO:10) was designated as a LOF mutant.
# [2] = molecular target: T1, human CLLD8 protein (hCLLD8) (Homo sapiens, UniProt Q96T68, E117G/V473M); test: β-galactosidase yeast two hybrid (YTH) interaction assay; assay type: binding
# T1 construct: expressed in transfected cells; prey cDNA came from a library of the A5T4 (BJAB-derived human B-cell) reporter line
# T1 sequence (Q96T68 1-719 E117G/V473M): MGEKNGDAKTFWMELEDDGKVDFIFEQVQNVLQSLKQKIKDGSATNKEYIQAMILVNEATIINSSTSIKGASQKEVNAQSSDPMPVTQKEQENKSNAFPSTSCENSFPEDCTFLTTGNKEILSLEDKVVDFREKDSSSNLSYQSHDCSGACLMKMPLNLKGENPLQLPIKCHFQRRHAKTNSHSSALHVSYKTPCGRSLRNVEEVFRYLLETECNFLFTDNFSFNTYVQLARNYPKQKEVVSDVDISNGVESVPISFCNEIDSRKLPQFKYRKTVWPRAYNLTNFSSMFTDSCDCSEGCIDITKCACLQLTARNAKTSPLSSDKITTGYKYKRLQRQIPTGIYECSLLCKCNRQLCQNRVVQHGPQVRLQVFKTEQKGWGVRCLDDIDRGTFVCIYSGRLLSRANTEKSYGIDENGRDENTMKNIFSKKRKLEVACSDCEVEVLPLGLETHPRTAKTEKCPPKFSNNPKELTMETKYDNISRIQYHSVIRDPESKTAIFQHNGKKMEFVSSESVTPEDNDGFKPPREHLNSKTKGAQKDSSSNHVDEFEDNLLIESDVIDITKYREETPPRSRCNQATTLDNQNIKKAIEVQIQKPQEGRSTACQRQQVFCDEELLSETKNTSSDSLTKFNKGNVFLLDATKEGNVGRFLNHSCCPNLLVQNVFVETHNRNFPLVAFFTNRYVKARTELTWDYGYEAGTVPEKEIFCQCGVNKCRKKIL
# Experimental: Potential binding partners for peptide CL02A3 wt were identified in a β-galactosidase yeast two-hybrid (YTH) assay using peptide CL02A3 wt as bait and a cDNA library constructed from the A5T4 reporter cell line as prey. Binding was assessed by β-galactosidase quantification using BetaFluor (Novagen) as a substrate. A negative interaction control (no cDNA fused downstream of the GAL4 activation domain sequence) was also run. A general outline of the YTH assay is illustrated in FIG. 5A. Following clustering, filtering to remove non-specific bait hits (e.g., GFP and BFP), singletons and clusters recognized by 10 or more cDNA baits (based upon historical YTH assays), and prioritization, 64 prey clones were identified as hits.
# Potential targets identified in the YTH assay were reconfirmed as generally outlined in FIG. 6. The cDNA clones identified as hits in the YTH assay were purified and rescreened for interaction with the CL02A3 wt peptide in a YTH assay. The hit clones were also screened in a control assay for interaction with the BFP using a vector (pGBKT7) that contained only the BFP and not the CL02A3 peptide. At this stage, 51 putative target clones remained.
# The interaction of CL02A3 wt peptide and its mutants with the clones identified as potential targets for the peptide CL02A3 wt was then quantified in a β-galactosidase YTH assay. The YTH assay was performed in the manner described above. A general outline of this YTH assay is illustrated in FIG. 5B. For each clone tested, an interaction profile was developed by comparing the β-galactosidase activity of each mutant to that of the wild type peptide, as described above.
# The interaction of these IOF, ROF and LOF mutants with different polypeptides encoded by the putative target clones were quantified using the YTH assay described above. […]
# [3] = test system: endogenous germline α promoter; test: TAQMAN assay of endogenous germline α promoter transcription in ST486 cells; assay type: cell-based; conditions: ST486 cells stimulated with TGF-β 40 ng/ml; average of 3 values
# Experimental: The assay was similar to that described in the immediately preceding section, except that ST486 cells (ATCC # CRL-1647) engineered to express the tetracycline-regulated transactivator were infected and the infected cells were stimulated with TGF-β (40 ng/ml; Peprotech). The primers and probe, which are specific for the transcription product driven by the ST486 endogenous α promoter, were as follows (the probe was labeled at the 5′-end with Fam and at the 3′-end with Tamra): […]
Sequence,Reporter Ratio [1],binding to human CLLD8 protein in yeast two hybrid interaction assay [2],other results
AMAAHHGWPWGMEQGCTPLG (peptide encoded by synthetic oligomer) [CL02A3HG],1.5,,
AMHGAAGWPWGMEQGCTPLG (peptide encoded by synthetic oligomer) [CL02A3HH],1.29,,
AMHGHHAAPWGMEQGCTPLG (peptide encoded by synthetic oligomer) [CL02A3GW],,found to bind,
AMHGHHGWAAGMEQGCTPLG (peptide encoded by synthetic oligomer) [CL02A3PW],1.24,,
AMHGHHGWPWGMAAGCTPLG (peptide encoded by synthetic oligomer) [CL02A3EQ],"2.23,",,
AMHGHHGWPWGMEQAATPLG (peptide encoded by synthetic oligomer) [CL02A3GC],1.89,,
AMHGHHGWPWGMEQGCAALG (peptide encoded by synthetic oligomer) [CL02A3TP],1.91,,
AMHGHHGWPWGMEQGCTPAA (peptide encoded by synthetic oligomer) [CL02A3LG],,found to bind,
AMHGHHGWPWGMEQGCTPLG (peptide encoded by synthetic oligomer) [CL02A3wt],,found to bind,endogenous α inhibition ratio [3]: 0.89
RAHGHHGWPWGMEQGCTPLG (peptide encoded by synthetic oligomer) [CL02A3AM],,,"functional category compared to CL02A3 wt, based on reporter ratio ([1]; % change calculated after subtracting 1.0 from the ratios): LOF (Cells expressing a loss of function mutant have a reporter ratio of <1.11)"
